Test results: PMC10692477 (Acta Pharmaceutica Sinica. B, 2023)

Molecular target: T1, AXL kinase (Homo sapiens, UniProt P30530)
T1 sequence (P30530 26-894): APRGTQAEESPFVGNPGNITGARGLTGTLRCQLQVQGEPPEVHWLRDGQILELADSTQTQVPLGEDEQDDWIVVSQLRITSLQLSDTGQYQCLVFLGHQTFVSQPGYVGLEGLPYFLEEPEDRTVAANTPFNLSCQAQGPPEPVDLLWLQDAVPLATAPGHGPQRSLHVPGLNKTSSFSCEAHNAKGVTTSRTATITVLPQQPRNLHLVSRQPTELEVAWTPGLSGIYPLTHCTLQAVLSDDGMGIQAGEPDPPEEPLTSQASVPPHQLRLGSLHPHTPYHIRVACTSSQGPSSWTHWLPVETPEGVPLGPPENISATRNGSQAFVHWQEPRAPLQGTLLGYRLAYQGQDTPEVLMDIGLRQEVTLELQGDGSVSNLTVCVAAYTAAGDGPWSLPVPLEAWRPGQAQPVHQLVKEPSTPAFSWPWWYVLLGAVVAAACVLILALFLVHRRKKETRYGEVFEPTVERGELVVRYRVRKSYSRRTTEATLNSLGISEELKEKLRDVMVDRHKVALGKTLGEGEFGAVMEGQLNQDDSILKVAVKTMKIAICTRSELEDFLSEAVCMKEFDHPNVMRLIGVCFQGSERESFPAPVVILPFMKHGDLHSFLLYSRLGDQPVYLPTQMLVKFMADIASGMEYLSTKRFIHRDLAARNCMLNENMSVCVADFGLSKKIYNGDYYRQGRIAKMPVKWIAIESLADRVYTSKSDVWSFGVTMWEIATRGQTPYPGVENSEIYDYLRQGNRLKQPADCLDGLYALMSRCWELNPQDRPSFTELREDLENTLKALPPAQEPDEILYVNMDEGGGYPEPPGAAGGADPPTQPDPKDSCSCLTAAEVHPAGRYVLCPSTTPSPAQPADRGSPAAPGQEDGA
Assay: AXL kinase inhibition, ELISA
Type: biochemical
Conditions: IC50 AXL kinase, ELISA; mean ± SD of two independent experiments

IC50 [nM]	SMILES
42.6 ± 6.2	COc1cc2ncnc(Oc3ccc(NC(=O)c4c5n(n(-c6ccc(Cl)cc6)c4=O)CCCC5)cc3F)c2cc1OC [Compound 21]
27.3 ± 2.6	COc1cc2ncnc(Oc3ccc(NC(=O)c4c5n(n(-c6ccc(C)cc6)c4=O)CCCC5)cc3F)c2cc1OC [Compound 23]
78.4 ± 2.1	COc1cc2ncnc(Oc3ccc(NC(=O)c4c5n(n(-c6cc(C)ccc6C)c4=O)CCCC5)cc3F)c2cc1OC [Compound 25]
25.1 ± 1.6	COc1cc2ncnc(Oc3ccc(NC(=O)c4c5n(n(-c6ccc(F)cc6F)c4=O)CCCC5)cc3F)c2cc1OC [Compound 27]
30.5 ± 4.9	COc1cc2ncnc(Oc3ccc(NC(=O)c4c5n(n(-c6ccc(F)cc6)c4=O)CCCC5)c(F)c3)c2cc1OC [Compound 31]
37 ± 1.4	COc1cc2ncnc(Oc3ccc(NC(=O)c4c5n(n(-c6cc(F)ccc6F)c4=O)CCCC5)c(F)c3)c2cc1OC [Compound 32]
30.9 ± 1.4	COc1cc2ncnc(Oc3ccc(NC(=O)c4c5n(n(-c6ccccc6F)c4=O)CCCC5)cc3Cl)c2cc1OC [Compound 34]
19.6 ± 1.9	COc1cc2ncnc(Oc3ccc(NC(=O)c4c5n(n(-c6ccc(F)cc6)c4=O)CCCC5)cc3Cl)c2cc1OC [Compound 35]

Same assay, conditions: read-out: inhibition rate AXL kinase

inhibition at 0.1 µM [%]	SMILES
-17.7	O=C(Nc1ccc(Oc2ccc3nncn3n2)cc1)c1c2n(n(-c3ccccc3)c1=O)CCCC2 [Compound 12]
-18.9	O=C(Nc1ccc(Oc2ccn3nccc3n2)cc1)c1c2n(n(-c3ccccc3)c1=O)CCCC2 [Compound 13]
-6	COc1nc(OC)nc(Oc2ccc(NC(=O)c3c4n(n(-c5ccccc5)c3=O)CCCC4)cc2)n1 [Compound 14]
23.2	COc1cc2ncnc(Oc3ccc(NC(=O)c4c5n(n(-c6ccccc6)c4=O)CCCC5)cc3C)c2cc1OC [Compound 37]
32.3	COc1cc2ncnc(Oc3ccc(NC(=O)c4c5n(n(-c6ccccc6F)c4=O)CCCC5)cc3C)c2cc1OC [Compound 38]
15.6	COc1cc2ncnc(Oc3ccc(NC(=O)c4c5n(n(-c6ccc(F)cc6)c4=O)CCCC5)cc3C)c2cc1OC [Compound 39]
35.7	COc1cc2ncnc(Oc3ccc(NC(=O)c4c5n(n(-c6cc(F)ccc6F)c4=O)CCCC5)cc3C)c2cc1OC [Compound 40]
56.4	COc1cc2ncnc(Oc3ccc(NC(=O)c4c5n(n(-c6ccccc6)c4=O)CCCC5)cc3OC)c2cc1OC [Compound 41]
28	COc1cc2ncnc(Oc3ccc(NC(=O)c4c5n(n(-c6ccccc6F)c4=O)CCCC5)cc3OC)c2cc1OC [Compound 42]
19.9	COc1cc2ncnc(Oc3ccc(NC(=O)c4c5n(n(-c6ccc(F)cc6)c4=O)CCCC5)cc3OC)c2cc1OC [Compound 43]
59.4	COc1cc2ncnc(Oc3ccc(NC(=O)c4c5n(n(-c6ccccc6)c4=O)CCCC5)cc3C(F)(F)F)c2cc1OC [Compound 45]
47.9	COc1cc2ncnc(Oc3ccc(NC(=O)c4c5n(n(-c6ccccc6F)c4=O)CCCC5)cc3)c2cc1OC [Compound 49]
41	COc1cc2ncnc(Oc3ccc(NC(=O)c4c5n(n(-c6ccccc6)c4=O)CCCC5)c4ccccc34)c2cc1OC [Compound 52]
41.4	COc1cc2ncnc(Oc3ccc(NC(=O)c4c5n(n(-c6ccccc6F)c4=O)CCCC5)c4ccccc34)c2cc1OC [Compound 53]
39	COc1cc2ncnc(Oc3ccc(NC(=O)c4c5n(n(-c6ccc(F)cc6)c4=O)CCCC5)c4ccccc34)c2cc1OC [Compound 54]
50.4	COc1cc2ncnc(Oc3ccc(NC(=O)c4c5n(n(-c6cc(F)ccc6F)c4=O)CCCC5)c4ccccc34)c2cc1OC [Compound 55]
50.9	COc1cc2nccc(Oc3ccc(NC(=O)c4c5n(n(-c6ccccc6)c4=O)CCCC5)cn3)c2cc1OC [Compound 58]

System: BaF3/TEL-AXL cells
Assay: BaF3/TEL-AXL cell viability
Type: cell-based
Conditions: 48 h, read-out: IC50 Cell viability

IC50 [nM]	SMILES
< 0.1	COc1cc2ncnc(Oc3ccc(NC(=O)c4c5n(n(-c6ccccc6)c4=O)CCCC5)cc3F)c2cc1OC [Compound 16]
< 0.1	COc1cc2ncnc(Oc3ccc(NC(=O)c4c5n(n(-c6ccccc6F)c4=O)CCCC5)cc3F)c2cc1OC [Compound 17]
